What was measured:
Experiment in all cases: relative viability (nuclei count vs DMSO), 5 days (fraction); higher = more cells survive
kb NB 142-70 = compound: C1CSC2=C(C(=O)N1)SC3=C2C=C(C=C3)O [kb NB 142-70]
Summary of the method: (§1)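 Five library-drug doses, separated by factors of √10, were pinned into 1536-well plates holding lung cancer cell lines after an overnight stay at 37 °C. Cells were fixed, permeabilised and Hoechst-stained in one step after 5 days without medium change, then imaged at 4×. Viability compares treated-well with vehicle-well nuclei, counted in MetaXpress, as a median across plates. Passing plates had control CV below 25% and at least one doubling.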

[1] = compound: NCC(=O)Nc1ccc(-n2nc(C(F)(F)F)cc2-c2ccc3c(ccc4ccccc43)c2)cc1
Summary of the method: as §1

[2] = compound: C1CSC2=C(C(=O)N1)SC3=C2C=C(C=C3)O [kb NB 142-70] + CC1(C)CCC(c2ccc(Cl)cc2)=C(CN2CCN(c3ccc(C(=O)NS(=O)(=O)c4ccc(N[C@H](CCN5CCOCC5)CSc5ccccc5)c(S(=O)(=O)C(F)(F)F)c4)cc3)CC2)C1 [Navitoclax] (partner 0.5 µM)
Summary of the method: (§2)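 The day after seeding in 1536-well plates, lung cancer cell lines were treated by pin tool with a single drug, or with a fixed anchor-drug dose together with five library-drug doses (not always all listed) in √10 steps. After 5 days, a combined fix-and-stain solution (final 0.05% Triton X-100, 1% formaldehyde, 1 ug/ml Hoechst) was added. Nuclei counted on 4× images gave relative viability as treated counts over vehicle counts, reported as the median of duplicate plates.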

[3] = compound: NCC(=O)Nc1ccc(-n2nc(C(F)(F)F)cc2-c2ccc3c(ccc4ccccc43)c2)cc1 + CC(=O)Nc1cccc(-n2c(=O)n(C3CC3)c(=O)c3c(Nc4ccc(I)cc4F)n(C)c(=O)c(C)c32)c1 [Trametinib] (partner 0.02 µM)
Summary of the method: as §2

kb NB 142-70 + Foretinib = compound: C1CSC2=C(C(=O)N1)SC3=C2C=C(C=C3)O [kb NB 142-70] + COc1cc2c(Oc3ccc(NC(=O)C4(C(=O)Nc5ccc(F)cc5)CC4)cc3F)ccnc2cc1OCCCN1CCOCC1 [Foretinib] (partner 0.25 µM)
Summary of the method: as §2

Cell Line	relative viability (kb NB 142-70; 0.1 µM)	relative viability (kb NB 142-70; 1 µM)	relative viability (kb NB 142-70; 3.162 µM)	relative viability ([1]; 0.02 µM)	relative viability ([1]; 0.06325 µM)	relative viability ([1]; 0.2 µM)	relative viability ([1]; 0.6325 µM)	relative viability ([1]; 2 µM)	relative viability ([2]; first compound 0.1 µM)	relative viability ([2]; first compound 1 µM)	relative viability ([2]; first compound 3.162 µM)	relative viability ([3]; first compound 0.02 µM)	relative viability ([3]; first compound 0.06325 µM)	relative viability ([3]; first compound 0.2 µM)	relative viability ([3]; first compound 0.6325 µM)	relative viability ([3]; first compound 2 µM)	relative viability (kb NB 142-70 + Foretinib; first compound 0.1 µM)	relative viability (kb NB 142-70 + Foretinib; first compound 1 µM)	relative viability (kb NB 142-70 + Foretinib; first compound 3.162 µM)
NCI-H2347	1.05	1.02	0.949	0.99	1.06	1.16	1.11	1.07	0.867	0.77	0.608	0.311	0.285	0.297	0.268	0.357	0.744	1.21	0.72
PC-14	0.958	0.973	0.954	1.05	1.06	0.954	0.964	1.02	0.977	1.06	0.96	0.861	0.704	–	0.625	0.608	0.936	0.919	1.07
NCI-H1651	1.02	0.975	0.821	1	0.947	0.978	0.956	0.998	1.07	1.03	0.39	0.804	0.815	0.858	0.798	0.851	0.802	0.683	0.618
HARA	0.986	0.971	1.02	0.901	1.09	0.975	1.11	1.07	1.15	1.11	1.08	0.792	0.771	0.586	0.659	0.919	0.771	0.521	0.867
NCI-H1650	0.988	1.02	0.849	0.913	0.995	0.847	0.971	1.09	1.25	1.24	0.89	0.403	0.54	0.648	0.769	0.642	1.44	1.23	1.18
NCI-H1395	1.01	0.963	0.601	0.941	0.983	0.755	0.858	1	1.26	1.23	0.826	1.09	0.998	1.1	1.03	1.09	0.942	1.04	0.946
LU99A	0.94	0.816	0.637	0.864	0.915	0.987	0.908	0.967	0.845	0.816	0.598	0.548	0.678	0.569	0.56	0.48	0.781	0.765	0.569
NCI-H1355	1.02	0.885	1.01	0.971	1.07	0.883	1.02	0.995	1.02	0.881	0.936	0.414	0.481	0.47	0.428	0.433	0.946	1.06	0.975
HCC-78	1.08	0.998	0.877	0.993	0.93	1.04	0.944	0.968	0.752	0.742	0.652	0.755	0.807	0.804	0.788	0.705	0.496	0.585	0.614
HCC-15	1.03	1	0.978	1	1.06	0.963	1.03	1.02	0.683	0.683	0.609	0.386	0.416	0.447	0.369	0.363	1.01	1.13	0.946
EKVX	0.933	0.981	0.988	1.03	1.01	0.971	0.966	1.01	0.883	1.01	0.87	0.408	0.356	0.428	0.366	0.369	0.834	0.903	0.86
NCI-H2087	1.04	1.29	0.951	0.978	1.09	1.1	1.08	1.02	1.06	1.11	0.771	0.155	0.209	0.214	0.181	0.185	1.25	1.32	0.968
LK-2	1.01	0.855	0.685	0.923	1.05	0.935	1.06	0.909	0.879	0.723	0.464	0.659	0.751	0.703	0.826	0.686	1.15	1.07	0.819
NCI-H1437	0.986	1	0.975	0.975	1.05	0.957	1.01	0.946	1.05	1.13	1.02	0.519	0.579	0.497	0.467	0.683	1.28	1.3	1.22
COR-L23	0.961	1.14	0.507	1.08	1.02	1.07	1	0.882	0.941	1.08	0.324	0.593	0.637	0.568	0.549	0.491	1.06	1.04	0.457
NCI-H838	0.965	0.961	0.963	0.958	0.998	1	0.909	0.864	1.19	1.14	1	0.515	0.539	0.521	0.43	0.411	1.02	1.06	1.04

Cell Line	relative viability (kb NB 142-70; 0.1 µM)	relative viability (kb NB 142-70; 1 µM)	relative viability (kb NB 142-70; 3.162 µM)	relative viability ([1]; 0.02 µM)	relative viability ([1]; 0.06325 µM)	relative viability ([1]; 0.2 µM)	relative viability ([1]; 0.6325 µM)	relative viability ([1]; 2 µM)	relative viability ([2]; first compound 0.1 µM)	relative viability ([2]; first compound 1 µM)	relative viability ([2]; first compound 3.162 µM)	relative viability ([3]; first compound 0.02 µM)	relative viability ([3]; first compound 0.06325 µM)	relative viability ([3]; first compound 0.2 µM)	relative viability ([3]; first compound 0.6325 µM)	relative viability ([3]; first compound 2 µM)	relative viability (kb NB 142-70 + Foretinib; first compound 0.1 µM)	relative viability (kb NB 142-70 + Foretinib; first compound 1 µM)	relative viability (kb NB 142-70 + Foretinib; first compound 3.162 µM)
A-427	1.04	1	0.969	0.766	1.06	0.998	0.994	1.03	1.03	1.07	0.962	0.722	0.787	0.866	0.721	0.783	1.14	1.25	0.929
LCLC-97TM1	1.03	0.956	0.489	0.995	1.1	1	1.01	0.958	0.457	0.29	0.307	0.21	0.215	0.213	0.198	0.189	1.01	0.883	0.606
PC-3 [JPC-3]	1	1.07	1.05	0.996	1.08	1.01	1.02	1.14	0.745	0.807	0.871	0.701	0.776	0.715	0.71	0.775	0.999	1.07	1.01
BEN	0.961	0.894	0.738	0.99	0.972	0.994	0.894	0.975	0.0749	0.0596	0.0617	0.861	1.15	1.05	0.938	1.11	0.535	0.648	0.486
NCI-H1666	0.951	1.01	0.922	1.05	0.986	1.01	0.961	0.987	1.08	1.04	0.858	0.905	0.849	0.914	0.868	0.851	0.993	1.02	0.814
LC-2-ad	1.09	0.977	0.886	0.951	1.08	1	0.968	1.01	0.537	0.473	0.262	0.952	0.971	0.951	0.95	0.935	0.977	0.953	0.668
SK-LU-1	0.994	0.982	0.664	0.949	1.1	1.2	1.01	1.07	0.747	0.642	0.178	0.43	0.519	0.537	0.521	0.576	0.782	0.732	0.346
ChaGo-K-1	1.06	1.05	0.946	0.98	0.994	0.941	0.971	1.03	1.17	1.11	0.885	0.832	0.903	0.882	0.83	0.842	0.89	0.967	0.862
COR-L 105	0.86	0.88	1.02	0.843	1.02	0.916	0.891	0.94	0.746	0.828	0.727	0.456	0.482	0.491	0.416	0.432	1.11	1.03	1
NCI-H1975	0.902	0.982	0.656	0.91	0.887	1.03	0.972	1.03	1.14	1.15	0.761	0.399	0.39	0.405	0.32	0.284	0.92	0.928	0.566
NCI-H1993	1.03	0.857	0.716	0.934	1.1	1.05	1	1.04	0.941	0.82	0.799	0.494	0.41	0.586	0.64	0.515	0.739	0.762	0.744
RERF-LC-KJ	0.988	1.04	0.921	1.05	1.01	0.993	1.01	1	1.05	0.762	0.468	0.89	0.839	0.847	0.843	0.848	0.941	0.905	0.938
NCI-H23	1.05	0.689	0.336	0.863	1.04	0.988	0.904	0.846	0.775	0.735	0.331	0.313	0.456	0.448	0.422	0.352	1.06	0.819	0.642
HCC-366	1.01	0.976	0.927	1.01	1.07	1	1.01	0.934	1.03	1.13	0.823	0.361	0.408	0.467	0.354	0.271	0.93	0.858	0.895
EMC-BAC-2	1.08	0.972	0.632	0.918	1.01	1.05	0.931	1	1.16	1.28	1.27	0.824	0.909	0.877	0.96	0.887	0.994	1.01	0.581
NCI-H2405	0.985	0.995	0.7	1	1.02	1.09	0.961	1.06	0.966	0.863	0.679	0.5	0.721	0.67	0.635	0.734	1.05	1.05	0.776

Source: the supplement of paper PMC10307832
